According to US20190055512A1, “METHODS AND COMPOSITIONS FOR SUBSTITUTING MEMBRANE LIPIDS IN LIVING CELLS” (The Research Foundation for The State University of New York, priority 2016, published 2019):

Key:
A549 cells [1] = experiment: Delivery of fluorescent NBD-DPPE into cells, kinetics of exchange; assay type: cell-based, human
Method: Microscopy and Kinetics of Exchange Monitored with Fluorescent Probes and ^3H Acetate: Cyclodextrin-lipid complex containing 1.5 mM lipid (90% bSM and 10% NBD-DPPE) and 40 mM MαCD was prepared. Then, 500 μl of the cyclodextrin-lipid complex was added to 90% confluent A549 cells cultured in 6-well plates (Corning Inc., Durham, N.C.). The cells were incubated for different times at 37° C., and then the cyclodextrin-lipid complex was removed. After three washes with 2 ml PBS the cells were removed from the plate by scraping in 1 ml PBS. The cells were pelleted by centrifugation at 3,000 rpm for 3 minutes and re-suspended in 1 ml PBS. Seven μl aliquots of cells were loaded on microscope slides and covered with a, coverslip. NBD fluorescence was then imaged by confocal laser scanning microscopy using a Zeiss LSM 5 Pascal confocal laser scanning microscope system (Carl Zeiss AG, German).
In other experiments, fluorescence intensity was measured for the each well of cells whereby cells were placed in fluorescence cuvettes using Fluorolog (Jobin Yvon Horiba, Edison, N.J.) with an excitation wavelength of 465 nm and emission wavelength of 534 nm. A non-specific lipid transfer control was prepared in a similar fashion without cyclodextrin.
In an analogous experiment, A549 cells were ^3H labeled and subjected to lipid exchange with cyclodextrin-lipid complex. The cells were collected at different times and lipids extracted and separated on TLC as described above. Radioactivity in the PS+PI and SM bands was subsequently measured by scintillation counting.

A549 cells [2] = experiment: Dithionite quenching of the NBD-DPPE exchanged into the cells; assay type: cell-based, human
Method: Dithionite Quenching of the NBD-DPPE Exchanged into the Cells. Cells into which NBD-DPPE was exchanged were prepared as described above, except at either 15° C., room temperature (23° C.) or 37° C. Fluorescence was measured before and (as a function of time) after the addition of a freshly prepared solution of IM dithionite in IM Tris buffer (pH 10) to the cells providing a final dithionite concentration of 50 mM.

A549 cells [3] = experiment: Charred TLC of cellular lipids after exchange; assay type: cell-based, human; settings: exchange with 3 mM exogenous POPC and MαCD, 1 hour; FIG. 5C lane 4
Method: High Performance Thin Layer Chromatography. The samples and pure lipid standards were dissolved in 1:1 (v:v) chloroform/methanol. […] The dissolved lipids then applied to HP-TLC (Silica Gel 60) plates (Merck, KGaA, Darmstadt, Germany) or Uniplate Silica Gel G plates (Analtech, Inc., Newark, Del.) and chromatographed in 65:25:5 (v:v) chloroform/methanol/28.0-30.0 (v/v) % ammonium hydroxide. Following chromatography, the TLC plates were air-dried and saturated with 3% (w/v) cupric-acetate-8% (v/v) phosphoric acid by spraying, and then air-dried again. Plates were then charred at 180° C. to develop lipid bands. Lipid band intensity was measured using Image J software (National Institutes of Health). Lipids in samples were quantified by comparing background-subtracted band intensity with that of a curve composed of various standard amounts of each lipid chromatographed on the same TLC plate. The intensity in the standard bands was fit to a linear intensity versus lipid quantity curve.
Analysis of exogenous lipid exchange over time after delivery into A549 cells. After a 1 h at 37° C. treatment with 40 mM MαCD mixed with 1.5 mM bSM, A549 cells were washed three times with DPBS. Then the cells were cultured for 0, 2, 4, and 6 hours in 10 mL RPMI 1640 medium supplemented with 10% fetal bovine serum. […]

A549 cells [4] = experiment: Cell morphology (cell rounding) and cell condition during incubation with MαCD and lipids
Source text: In certain embodiments, the appropriate lipid concentration can be determined prior to implementing the exchange methods of the instant disclosure. For example, the optimal lipid concentration can be determined by screening a series of various lipid concentrations. For example, cyclodextrin-lipid complexes of the present disclosure can be formed using a constant alpha-cyclodextrin concentration and varying lipid. Once various solutions of cyclodextrin and lipid are made they can be applied to cells using the methods described herein. This will enable the user to identify the highest concentration(s) lipids where the cells are not negatively affected, i.e., no cell rounding over time is optimal for lipid exchange, as it minimizes cell loss during processing. This can be determined, for example, by splitting cells into each well of a multi-well plate one day before the experiment and growing the cells to confluence. Then equal aliquots of the solutions having various concentrations of lipid are placed in separate wells and incubated at 37° C. for 1-2 hours.
In certain embodiments, the appropriate cyclodextrin concentration can be determined prior to implementing the exchange methods of the instant disclosure. For example, the optimal cyclodextrin concentration can be determined by screening a series of various cyclodextrin concentrations. For example, cyclodextrin-lipid complexes of the present disclosure can be formed using a constant lipid concentration but varying alpha-cyclodextrin concentration. Once various solutions of cyclodextrin and lipid are made they can be applied to cells using the methods described herein. […] This can be determined, for example, by splitting cells into each well of a multi-well plate one day before the experiment and growing the cells to confluence. Then equal aliquots of the solutions having various concentrations of cyclodextrin are placed in separate wells and incubated at 37° C. for 1-2 hours.
In some embodiments, the instructions for the analysis of lipid exchange include methods for identifying optimal concentrations of lipids and/or cyclodextrins for use in exchanging lipids between a cyclodextrin-lipid complex of the present disclosure and a cell membrane. […] As such, instructions included within kits of the instant disclosure can include, instructions for screening a series of various cyclodextrin or lipid concentrations. For example, the instructions can include maintaining a constant lipid concentration and altering numerous alpha-cyclodextrin concentrations or vice versa. […] This can be determined, for example, by splitting cells into each well of a multi-well plate one day before the experiment and growing the cells to confluency. […]

MDA-MB-231 cells = experiment: Transferrin (TF) endocytosis; assay type: cell-based; settings: cholesterol depletion, 10 mM MβCD, 30 min, 37° C.
Method: Measurement of Transferrin (TF) Endocytosis. MDA-MB-231 cells were plated in 2 ml RPMI 1640 at 6×10^5 on a coverslip in a 35 mm dish. After 1 d, they were subjected to cholesterol depletion or phospholipid exchange. For cholesterol depletion, cells were washed with 1 ml DPBS (2-3 times) and treated with 10 mM M MβCD/DMEM for 30 min at 37° C. in the CO2 incubator. For phospholipid substitution, the DPBS washed cells were treated with mixture of 40 mM MαCD and a combination of 0.75 mM bSM and 0.75 mM POPC in serum free medium for 30 rain, again while maintained at 37° C. in the CO2 incubator. After cholesterol depletion or phospholipid exchange, cells were washed with 1 ml DPBS three times. Then 50 μg/ml TF-AF488 in DMEM was added to the cells and incubated for 10 min in room temperature in the dark. Next, cells were washed with 2 ml DPBS three times and subjected to an additional 3 washes on ice with an acid solution (100 mM citric acid, 140 mM NaCl in distilled water pH adjusted to 1.75), incubating the cells with the solution for 3 min during each wash. The acid wash solution was removed by washing three times with 2 ml of 1×PBS and the cells then fixed using 2 ml 3% PFA for 30 min (10 min on ice and 20 min at room temperature). […]

A549 cells [5] = experiment: Phospholipid content by LC/MS/MS after lipid exchange; assay type: cell-based, human; settings: mass spectrometry
Method: Exchange of Lipids between Cells and Cyclodextrin-lipid Complexes. Unless otherwise noted, the cells are cultured in 10 cm plates with 10 mL medium. After removing the growth medium and washing three times with 10 ml DPBS, a 1500 μL aliquot of cyclodextrin-lipid complex containing MαCD (formed using 1.5 mM lipid and 40 mM MαCD concentrations) was added to 90% confluent mammalian cells cultured in […] cell culture dishes (Corning Incorporated, Durham, N.C.). The cells were then incubated with the cyclodextrin-lipid complex for 1 hour at 37° C., unless otherwise noted. After removal of the cyclodextrin-lipid complex and three washes with 10 mL PBS the cells were removed from the plate by scraping in 5 mL PBS. The cells were then pelleted by centrifugation for 3 minutes at 3,000 rpm and the lipid composition of the pellet was analyzed. […]
Phospholipid Content by LCMS/M S: Phospholipids were extracted from samples as set forth above. […] The class specific phospholipid extracts for each sample were injected on an Agilent (Santa Clara Calif., USA) Eclipse XDB-C8 reversed phase column (4.6×50 mm, 1.8 μm particle size) for separation of molecular species within each class by gradient elution and detected by mass spectrometry utilizing scheduled multiple reaction monitoring. In this manner, a peak with unique column elution time and mass-to-fragment profile was measured. […]

In the case of `CCCCCCCCCCCCCCCC(=O)OC[C@H](COP(=O)(O)OCCNc1ccc([N+](=O)[O-])c2nonc12)OC(=O)CCCCCCCCCCCCCCC` [NBD-DPPE, 1,2-dipalmitoyl-sn-glycero-3-phosphoethanolamine-N-(7-nitro-2-1,3-benzoxadiazol-4-yl)], the “half-time of delivery of NBD-DPPE and removal of endogenous SM” value (A549 cells [1]; 37° C., FIG. 2A) is reported as 15 to 20 min, the “Half-time of lipid exchange (endogenous SM removal / NBD-DPPE delivery)” value (A549 cells [1]; A549 cells, 37° C., FIG. 2A legend) is reported as 10 to 15 min and the “NBD-lipid exchanged into cells accessible to dithionite” value (A549 cells [2]; FIG. 3B) is reported as 70-80%. The “fluorescence protected from dithionite reduction” value (A549 cells [2]; incubation at 15° C.) was “about 20%” and the “fluorescence protected from dithionite reduction” value (A549 cells [2]; incubation at 37° C., extrapolated to time zero) was “approximately 30%”.

With `OC[C@H]1O[C@@](CO)(O[C@H]2O[C@H](CO)[C@@H](O)[C@H](O)[C@H]2O)[C@@H](O)[C@@H]1O` [sucrose] the “amount of fluorescent lipid delivered to cells relative to buffer only” value (A549 cells [1]; 40 or 240 mM sucrose substituted for MαCD) was “did not increase”.

With “1-palmitoyl-2-oleoyl-sn-glycerol-3-phosphocholine [POPC]” the “removal of endogenous SM” value (A549 cells [3]) was “most endogenous SM was removed”, the “incubation time at which normal morphology begins to change” value (A549 cells [4]; 3 mM POPC, 40 mM MαCD) was “≈45′” and the “incubation time at which normal morphology begins to change” value (A549 cells [4]; 3 mM POPC, 80 mM MαCD) was “≈15′”. The “incubation time at which normal morphology begins to change” value (A549 cells [4]; 6 mM POPC, 40 mM MαCD) was “≈45′” and the “incubation time at which normal morphology begins to change” value (A549 cells [4]; […] POPC, 40 mM MαCD) was “≈15′”.

For Methyl-β-cyclodextrin [MβCD], the “clathrin-mediated endocytosis of transferrin” value (MDA-MB-231 cells) was “strongly inhibited”.

With `CCCCCCCCCCCCC/C=C/[C@@H](O)[C@H](COP(=O)([O-])OCC[N+](C)(C)C)NC(=O)CCCCCCCCCCCCCCCC` [C17:0 SM, N-hepadecanoyl-D-erythro-sphingosylphosphorylcholine] the “exogenous C17:0 SM in cells after exchange relative to total endogenous cell SM prior to exchange” value (A549 cells [5]) was 2.1 fold.
